Laboratory results as given in patent publication US11104675B2, “PTPN11 inhibitors” (NAVIRE PHARMA, INC., priority 2018, dated 2021).

The compounds below were run on KYSE520 xenografts (assay: In vivo anti-tumor efficacy, KYSE520 xenograft model). Settings: NSG mice, subcutaneous KYSE520 xenografts, oral gavage once a day for 21 days.
Set-up: species or system NSG (NOD scid gamma) mice

| SMILES | tumor growth inhibition |
| --- | --- |
| Cc1c(N2CCC3(CC2)CO[C@@H](C)[C@H]3N)nc(C)n(-c2cccc(Cl)c2Cl)c1=O (atropisomer, axis not shown; (Ra)) [Example 10b, 6-((3S, 4S)-4-amino-3-methyl-2-oxa-8-azaspiro[4.5]decan-8-yl)-3-(Ra)-(2,3-dichlorophenyl)-2,5-dimethylpyrimidin-4(3H)-one] | dose-dependent tumor growth inhibition |

The compounds below were run against PTPN11-E76K mutant enzyme (Homo sapiens (Human), UniProt Q06124, E76K) (assay: PTPN11 Enzymatic Assay (DiFMUP phosphatase activity)). Settings: full length PTPN11-E76K, DiFMUP substrate; read-out: IC50, inhibition of PTPN11-E76K mutant enzyme.
Chain of PTPN11-E76K mutant enzyme (Q06124 whole entry E76K): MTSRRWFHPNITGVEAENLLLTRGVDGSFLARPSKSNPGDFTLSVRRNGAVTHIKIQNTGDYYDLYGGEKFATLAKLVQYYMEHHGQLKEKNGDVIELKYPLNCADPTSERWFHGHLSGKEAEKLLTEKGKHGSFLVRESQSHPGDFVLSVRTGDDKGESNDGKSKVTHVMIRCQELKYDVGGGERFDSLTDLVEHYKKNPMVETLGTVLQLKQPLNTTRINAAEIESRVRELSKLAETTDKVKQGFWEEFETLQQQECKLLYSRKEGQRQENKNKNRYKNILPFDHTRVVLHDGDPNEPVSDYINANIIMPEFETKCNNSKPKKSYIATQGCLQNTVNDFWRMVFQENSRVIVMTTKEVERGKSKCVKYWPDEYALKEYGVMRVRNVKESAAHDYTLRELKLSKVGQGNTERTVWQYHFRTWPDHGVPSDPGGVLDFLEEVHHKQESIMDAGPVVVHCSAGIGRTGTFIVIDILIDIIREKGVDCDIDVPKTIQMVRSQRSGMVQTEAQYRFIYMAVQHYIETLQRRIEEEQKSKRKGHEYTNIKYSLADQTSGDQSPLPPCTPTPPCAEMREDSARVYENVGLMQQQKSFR
Format: biochemical

| SMILES | IC50 [nM] |
| --- | --- |
| COc1cccc(-n2c(C)nc(N3CCC4(CC3)CO[C@@H](C)[C@H]4N)cc2=O)c1Cl (atropisomer, axis not shown; (Ra)) [Example 7b, 6-((3S,4S)-4-amino-3-methyl-2-oxa-8-azaspiro[4.5]decan-8-yl)-3-(Ra)-(2-chloro-3-methoxyphenyl)-2-methylpyrimidin-4(3H)-one] | 153 |
| Cc1c(N2CCC3(CC2)CO[C@@H](C)[C@H]3N)nc(C)n(-c2cccc(Cl)c2Cl)c1=O (atropisomer, axis not shown; (Ra)) [Example 10b, 6-((3S, 4S)-4-amino-3-methyl-2-oxa-8-azaspiro[4.5]decan-8-yl)-3-(Ra)-(2,3-dichlorophenyl)-2,5-dimethylpyrimidin-4(3H)-one] | 28 |
| Cc1nc(N2CCC3(CC2)CO[C@@H](C)[C@H]3N)c(Br)c(=O)n1-c1cccc(Cl)c1Cl (atropisomer, axis not shown; (Ra)) [Example 12b, 6-((3S, 4S)-4-amino-3-methyl-2-oxa-8-azaspiro[4.5]decan-8-yl)-5-bromo-3-(Ra)-(2,3-dichlorophenyl)-2-methylpyrimidin-4(3H)-one] | 20 |
| Cc1cccc(-n2c(C)nc(N3CCC4(CC3)CO[C@@H](C)[C@H]4N)cc2=O)c1Cl (atropisomer, axis not shown; (Ra)) [Example 13b, 6-((3S, 4S)-4-amino-3-methyl-2-oxa-8-azaspiro[4.5]decan-8-yl)-3-(Ra)-(2-chloro-3-methylphenyl)-2-methylpyrimidin-4(3H)-one] | 186 |
| Cc1nc(N2CCC3(CC2)CO[C@@H](C)[C@H]3N)cc(=O)n1-c1cccc(C(F)(F)F)c1Cl (atropisomer, axis not shown; (Ra)) [Example 14b, 6-((3 S, 4S)-4-Amino-3-methyl-2-oxa-8-azaspiro[4.5]decan-8-yl)-3-(Ra)-(2-chloro-3-(trifluoromethyl)phenyl)-2-methylpyrimidin-4(3H)-one] | 703 |
| Cc1nc(N2CCC3(CC2)CO[C@@H](C)[C@H]3N)cc(=O)n1-c1ccc(Oc2ccccc2)c(Cl)c1Cl (atropisomer, axis not shown; (Ra)) [Example 15b, 6-((3S, 4S)-4-amino-3-methyl-2-oxa-8-azaspiro[4.5]decan-8-yl)-3-(Ra)-(2,3-dichloro-4-phenoxyphenyl)-2-methylpyrimidin-4(3H)-one] | 148 |
| Cc1nc(N2CCC3(CC2)CO[C@@H](C)[C@H]3N)cc(=O)n1-c1ccc(Oc2ccn(C)n2)c(Cl)c1Cl (atropisomer, axis not shown; (Ra)) [Example 16b, 6-((3 S, 4S)-4-Amino-3-methyl-2-oxa-8-azaspiro[4.5]decan-8-yl)-3-(Ra)-(2,3-dichloro-4-((1-methyl-1H-pyrazol-3-yl)oxy)phenyl)-2-methylpyrimidin-4(3H)-one] | 92 |
| Cc1c(N2CCC3(CC2)CO[C@@H](C)[C@H]3N)nc(C)n(-c2ccc(Oc3ccn(C)n3)c(Cl)c2Cl)c1=O (atropisomer, axis not shown; (Ra)) [Example 18b, 6-((3 S, 4 S)-4-Amino-3-methyl-2-oxa-8-azaspiro[4.5]decan-8-yl)-3-(Ra)-(2,3-dichloro-4-((1-methyl-1H-pyrazol-3-yl)oxy)phenyl)-2,5-dimethylpyrimidin-4(3H)-one] | 3 |
| CNC(=O)c1ccc(Oc2ccc(-n3c(C)nc(N4CCC5(CC4)CO[C@@H](C)[C@H]5N)c(C)c3=O)c(Cl)c2Cl)cc1 (atropisomer, axis not shown; (Ra)) [Example 19b] | 12 |
| Cc1c(N2CCC3(CC2)CO[C@@H](C)[C@H]3N)nc(C)n(-c2ccc(Oc3cc[nH]n3)c(Cl)c2Cl)c1=O (atropisomer, axis not shown; (Ra)) [Example 20b, 3-(4-((1H-pyrazol-3-yl)oxy)-(Ra)-2,3-dichlorophenyl)-6-((3S, 4S)-4-amino-3-methyl-2-oxa-8-azaspiro[4.5]decan-8-yl)-2,5-dimethylpyrimidin-4(3H)-one] | 5 |
| COc1cccc(-n2c(C)nc(N3CCC4(CC3)CO[C@@H](C)[C@H]4N)cc2=O)c1Cl (atropisomer, axis not shown; (Sa)) [Example 7a, 6-((3S,4S)-4-amino-3-methyl-2-oxa-8-azaspiro[4.5]decan-8-yl)-3-(Sa)-(2-chloro-3-methoxyphenyl)-2-methylpyrimidin-4(3H)-one] | > 10000 |
| Cc1c(N2CCC3(CC2)CO[C@@H](C)[C@H]3N)nc(C)n(-c2cccc(Cl)c2Cl)c1=O (atropisomer, axis not shown; (Sa)) [Example 10a, 6-((3S, 4S)-4-Amino-3-methyl-2-oxa-8-azaspiro[4.5]decan-8-yl)-3-(Sa)-(2,3-dichlorophenyl)-2,5-dimethylpyrimidin-4(3H)-one] | 2580 |
| Cc1nc(N2CCC3(CC2)CO[C@@H](C)[C@H]3N)c(Br)c(=O)n1-c1cccc(Cl)c1Cl (atropisomer, axis not shown; (Sa)) [Example 12a, 6-((3S, 4S)-4-Amino-3-methyl-2-oxa-8-azaspiro[4.5]decan-8-yl)-5-bromo-3-(Sa)-(2,3-dichlorophenyl)-2-methylpyrimidin-4(3H)-one] | 3460 |
| Cc1cccc(-n2c(C)nc(N3CCC4(CC3)CO[C@@H](C)[C@H]4N)cc2=O)c1Cl (atropisomer, axis not shown; (Sa)) [Example 13a, 6-((3S, 4S)-4-Amino-3-methyl-2-oxa-8-azaspiro[4.5]decan-8-yl)-3-(Sa)-(2-chloro-3-methylphenyl)-2-methylpyrimidin-4(3H)-one] | 7500 |
| Cc1nc(N2CCC3(CC2)CO[C@@H](C)[C@H]3N)cc(=O)n1-c1cccc(C(F)(F)F)c1Cl (atropisomer, axis not shown; (Sa)) [Example 14a, 6-((3S, 4S)-4-Amino-3-methyl-2-oxa-8-azaspiro[4.5]decan-8-yl)-3-(Sa)-(2-chloro-3-(trifluoromethyl)phenyl)-2-methylpyrimidin-4(3H)-one] | > 1000 |
| Cc1nc(N2CCC3(CC2)CO[C@@H](C)[C@H]3N)cc(=O)n1-c1ccc(Oc2ccccc2)c(Cl)c1Cl (atropisomer, axis not shown; (Sa)) [Example 15a, 6-((3S, 4S)-4-Amino-3-methyl-2-oxa-8-azaspiro[4.5]decan-8-yl)-3-(Sa)-(2,3-dichloro-4-phenoxyphenyl)-2-methylpyrimidin-4(3H)-one] | > 1000 |
| Cc1nc(N2CCC3(CC2)CO[C@@H](C)[C@H]3N)cc(=O)n1-c1ccc(Oc2ccn(C)n2)c(Cl)c1Cl (atropisomer, axis not shown; (Sa)) [Example 16a, 6-((3 S, 4S)-4-Amino-3-methyl-2-oxa-8-azaspiro[4.5]decan-8-yl)-3-(Sa)-(2,3-dichloro-4-((1-methyl-1H-pyrazol-3-yl)oxy)phenyl)-2-methylpyrimidin-4(3H)-one] | 9550 |
| Cc1c(N2CCC3(CC2)CO[C@@H](C)[C@H]3N)nc(C)n(-c2ccc(Oc3ccn(C)n3)c(Cl)c2Cl)c1=O (atropisomer, axis not shown; (Sa)) [Example 18a, 6-((3S, 4S)-4-Amino-3-methyl-2-oxa-8-azaspiro[4.5]decan-8-yl)-3-(Sa)-(2,3-dichloro-4-((1-methyl-1H-pyrazol-3-yl)oxy)phenyl)-2,5-dimethylpyrimidin-4(3H)-one] | 511 |
| Cc1nc(N2CCC(C)(CN)CC2)cc(=O)n1-c1cccc(Cl)c1Cl [Example 3, 6-[4-(aminomethyl)-4-methylpiperidin-1-yl]-3-(2,3-dichlorophenyl)-2-methyl-3,4-dihydropyrimidin-4-one] | 310 |
| CCC1(N)CCN(c2cc(=O)n(-c3cccc(Cl)c3Cl)c(C)n2)CC1 [Example 4, 6-(4-amino-4-ethylpiperidin-1-yl)-3-(2,3-dichlorophenyl)-2-methyl-3,4-dihydropyrimidin-4-one] | 480 |
| Cc1nc(N2CCC3(CC2)CO[C@@H](C)[C@H]3N)cc(=O)n1-c1cccc(F)c1F [Example 5, 6-[(3S,4S)-4-amino-3-methyl-2-oxa-8-azaspiro[4.5]decan-8-yl]-3-(2,3-difluorophenyl)-2-methyl-3,4-dihydropyrimidin-4-one] | 1170 |
| Cc1nc(N2CCC3(CC2)CO[C@@H](C)[C@H]3N)cc(=O)n1-c1ccc(Br)c(Cl)c1Cl [Example 6, 6-((3S,4S)-4-amino-3-methyl-2-oxa-8-azaspiro[4.5]decan-8-yl)-3-(4-bromo-2,3-dichlorophenyl)-2-methylpyrimidin-4(3H)-one] | 203 |
| Cc1nc(N2CCC3(CC2)CO[C@@H](C)[C@H]3N)cc(=O)n1-c1cccc(Cl)c1Br [Example 8, 6-((3S,4S)-4-amino-3-methyl-2-oxa-8-azaspiro[4.5]decan-8-yl)-3-(2-bromo-3-chlorophenyl)-2-methylpyrimidin-4(3H)-one] | 360 |
| Cc1nc(N2CCC3(CC2)CO[C@@H](C)[C@H]3N)c(Cl)c(=O)n1-c1ccnc(Cl)c1Cl [Example 17, 6-((3S, 4S)-4-Amino-3-methyl-2-oxa-8-azaspiro[4.5]decan-8-yl)-5-chloro-3-(2,3-dichloropyridin-4-yl)-2-methylpyrimidin-4(3H)-one] | 618 |
